According to patent US10287267B2, “Isoquinolin-3-yl carboxamides and preparation and use thereof” (Samumed, LLC, priority 2016, dated 2019):

Experiments:
[1] = test system: Tau phosphorylation at Ser396 (pSer396); assay: Tau phosphorylation assay (pSer396 ELISA / western blot) in SH-SY5Y cells; format: cell-based, human; details: Homo sapiens; SH-SY5Y cells, overnight (16-18 h) exposure; read-out: pSer396 Tau EC50;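 further: EC50 for reduction of Tau pSer396 in lysed cells, measured by colorimetric ELISA or chemiluminescent western blot, both using the same pSer396 antibody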
[2] = test system: Wnt pathway (Sp5-Luc reporter, TCF/LEF binding sites) in SW480 colon carcinoma cells; assay: Screening assay for Wnt activity: Sp5-Luc reporter gene assay; format: cell-based, human; details: Homo sapiens; for EC50: Sp5-Luc reporter, SW480 cells, 36 to 48 hours; for inhibition at 10 µM: SW480, read-out: percent inhibition at 10 μM;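 on all read-outs here: firefly luciferase luminescence read in stably transduced SW480 cells carrying the Sp5 promoter reporter with eight TCF/LEF sites, compounds given in 0.1% DMSO final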
Description: The screening assay for Wnt activity is described as follows.
Following incubation, 15 μl of BriteLite Plus luminescence reagent (Perkin Elmer) was added to each well of the 384-well assay plates. The plates were placed on an orbital shaker for 2 min and then luminescence was quantified using the Envision (Perkin Elmer) plate reader.

[3] = biological target: recombinant DYRK1A kinase (Homo sapiens (Human), UniProt Q13627); assay: DYRK1A kinase assay (Ser/Thr 18 peptide Z-lyte FRET); format: biochemical; details: 30 μM ATP, 1 h room temperature;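 further: Read-out is the coumarin to fluorescein emission ratio, referenced to unphosphorylated (0%) and phosphorylated (100%) Ser/Thr 18 peptide controls, values from dose-response curves by non-linear regression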
[4] = test system: α-smooth muscle actin (αSMA) positive LL29 cells; assay: Inhibition of fibrotic process: αSMA in TGF-β1 treated primary human fibroblasts from IPF patients; format: cell-based; details: Homo sapiens, Fibroblast; for EC50: 96 h, Table 8, LL29 fibroblasts from IPF patients, TGF-β1 20 ng/mL, 4 days, dose-response 10 μM to 0.94 nM; for inhibition at 10 µM: read-out: percent value in parentheses beside EC50 >10 μM;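 on all read-outs here: controls were TGF-β1 stimulated wells with DMSO vehicle (positive) and cells given DMSO alone (negative), cultured in F12 medium with 1% fetal bovine serum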
recombinant GSK3β kinase = recombinant GSK3β kinase (Homo sapiens (Human), UniProt P49841); assay: GSK3β kinase assay (Ser/Thr 09 peptide Z-lyte FRET); format: biochemical; details: 46 μM ATP, 1 h room temperature;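 further: kinase activity read as coumarin to fluorescein emission ratio, 11-point threefold dilutions from 10 µM to 0.0003 µM in duplicate, unphosphorylated and phosphorylated peptide as 0% and 100% controls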
Chain of recombinant GSK3β kinase (P49841 whole entry): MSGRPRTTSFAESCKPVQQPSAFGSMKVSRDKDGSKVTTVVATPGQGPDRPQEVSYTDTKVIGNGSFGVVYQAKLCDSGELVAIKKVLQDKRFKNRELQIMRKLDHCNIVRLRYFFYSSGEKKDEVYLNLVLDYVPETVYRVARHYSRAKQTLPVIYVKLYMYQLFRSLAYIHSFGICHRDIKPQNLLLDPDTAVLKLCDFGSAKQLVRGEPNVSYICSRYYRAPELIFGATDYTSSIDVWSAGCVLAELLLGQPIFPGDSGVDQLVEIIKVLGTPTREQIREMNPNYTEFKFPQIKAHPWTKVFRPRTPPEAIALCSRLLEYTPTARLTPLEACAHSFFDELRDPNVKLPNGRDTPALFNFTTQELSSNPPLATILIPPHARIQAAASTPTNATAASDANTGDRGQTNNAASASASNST

IL-6 = IL-6 inhibition in LPS-stimulated human peripheral blood mononuclear cells (HTRF); format: cell-based; details: Homo sapiens, PBMC; for EC50: Table 9, huPBMCs, LPS 50 ng/mL, 22 hours, dose-response starting from 10 μM; for inhibition at 10 µM: read-out: percent value in parentheses beside EC50 >10 μM;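 on all read-outs here: IL-6 detected by HTRF with an XL665- and Cryptate-labelled anti-IL-6 antibody pair, samples run in duplicate, EC50 obtained from a four-parameter Levenberg-Marquardt curve fit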
Description: After 22 hour incubation, a mixture of anti-IL6 XL665 and anti-IL-6 Cryptate diluted in reconstitution buffer (Catalog #62IL6PEC, Cisbio Inc., Bedford, Mass.) was added to each well. […] All samples were processed in duplicate. […] EC50 was determined using software generated by Dotmatics Limited (Windhill Bishops Stortford Herts, UK) using the Levenberg-Marquardt 4 parameter fitting procedure with finite different gradients.

[5] = test system: SW480 colon carcinoma cells; assay: Cell viability assay (CellTiter-Glo); format: cell-based, human; details: Homo sapiens; for EC50: 96 h, SW480 cells, CellTiter-Glo, four days incubation; for inhibition at 10 µM: SW480, read-out: percent inhibition at 10 μM

Row | Structure (SMILES) | EC50 [1] | EC50 [2] | EC50 [3] | EC50 [4] | EC50 (recombinant GSK3β kinase) | EC50 (IL-6) | EC50 [5] | inhibition at 10 µM [4] | inhibition at 10 µM (IL-6) | inhibition at 10 µM [5] | inhibition at 10 µM [2]
1 | Cn1cc(-c2ccc3cnc(NC(=O)C4CCC(F)(F)CC4)cc3c2)cn1 [Compound 3, 4,4-Difluoro-N-(6-(1-methyl-1H-pyrazol-4-yl)isoquinolin-3-yl) cyclohexanecarboxamide] | 288 nM | 1700 nM | 3.7 nM | 103 nM | 38 nM | 792 nM | 2800 nM | – | – | – | –
2 | CO[C@H]1CC[C@H](C(=O)Nc2cc3cc(-c4cnn(C)c4)ccc3cn2)CC1 [Compound 4, trans-4-Methoxy-N-(6-(1-methyl-1H-pyrazol-4-yl)isoquinolin-3-yl) cyclohexane-1-carboxamide] | 671 nM | 983 nM | 1.8 nM | 68 nM | 80 nM | 1130 nM | 1940 nM | – | – | – | –
3 | Cn1cc(-c2ccc3cnc(NC(=O)[C@H]4CC[C@H](N5CCOCC5)CC4)cc3c2)cn1 [Compound 6, trans-N-(6-(1-Methyl-1H-pyrazol-4-yl)isoquinolin-3-yl)-4-morpholinocyclohexane-1-carboxamide] | 475 nM | 1110 nM | 1.3 nM | > 10000 nM | 65 nM | 1290 nM | 1260 nM | 45.6% | – | – | –
4 | Cn1cc(-c2ccc3cnc(NC(=O)[C@H]4CC[C@H](CN5CC(F)C5)CC4)cc3c2)cn1 [Compound 10, trans-4-((3-Fluoroazetidin-1-yl)methyl)-N-(6-(1-methyl-1H-pyrazol-4-yl)isoquinolin-3-yl)cyclohexane-1-carboxamide] | 227 nM | 277 nM | 1.3 nM | > 10000 nM | 51 nM | 399 nM | 324 nM | 39.6% | – | – | –
5 | CN1CCN(C[C@H]2CC[C@H](C(=O)Nc3cc4cc(-c5cnn(C)c5)ccc4cn3)CC2)CC1 [Compound 14, trans-N-(6-(1-Methyl-1H-pyrazol-4-yl)isoquinolin-3-yl)-4-((4-methylpiperazin-1-yl)methyl)cyclohexane-1-carboxamide] | 408 nM | 354 nM | 1.5 nM | 35 nM | 59 nM | 643 nM | 898 nM | – | – | – | –
6 | Cn1cc(-c2ccc3cnc(NC(=O)CN4CCC(C(F)F)CC4)cc3c2)cn1 [Compound 295, 2-(4-(Difluoromethyl)piperidin-1-yl)-N-(6-(1-methyl-1H-pyrazol-4-yl)isoquinolin-3-yl)acetamide] | 430 nM | 2570 nM | 2.8 nM | 4460 nM | 20 nM | > 10000 nM | – | – | 5.9% | – | –
7 | O=C(Nc1cc2cc(-c3cnco3)ccc2cn1)C1CCOCC1 [Compound 976, N-(6-(Oxazol-5-yl)isoquinolin-3-yl)tetrahydro-2H-pyran-4-carboxamide] | 536 nM | 2960 nM | 6.1 nM | 1170 nM | 146 nM | – | 3880 nM | – | – | – | –
8 | Cn1cc(-c2ccc3cnc(NC(=O)OC(C)(C)C)cc3c2)cn1 [Compound 1025, tert-Butyl (6-(1-methyl-1H-pyrazol-4-yl)isoquinolin-3-yl)carbamate] | > 10000 nM | > 10000 nM | 78 nM | > 10000 nM | 100 nM | > 10000 nM | – | 31.4% | 13.6% | – | –
9 | CCN(CC)c1ncc(-c2ccc3cnc(NC(=O)CN4CCN(C)CC4)cc3c2)s1 [Compound 1048, N-(6-(2-(Diethylamino)thiazol-5-yl)isoquinolin-3-yl)-2-(4-methylpiperazin-1-yl)acetamide] | 4700 nM | 9380 nM | 541 nM | – | 5810 nM | > 10000 nM | 4060 nM | – | 4.3% | – | –
10 | Cc1nnc(-c2ccc3cnc(NC(=O)CN4CCCOCC4)cc3c2)s1 [Compound 1049, N-(6-(5-Methyl-1,3,4-thiadiazol-2-yl)isoquinolin-3-yl)-2-(1,4-oxazepan-4-yl) acetamide] | 319 nM | 2540 nM | 6.9 nM | – | 12 nM | > 10000 nM | > 10000 nM | – | 10.4% | 31.3% | –
11 | CC(F)(F)CN1CCC(C(=O)Nc2cc3cc(-c4cnco4)ccc3cn2)CC1 [Compound 1057, 1-(2,2-Difluoropropyl)-N-(6-(oxazol-5-yl)isoquinolin-3-yl)piperidine-4-carboxamide] | 342 nM | > 10000 nM | 2.7 nM | – | 97 nM | 3200 nM | 4500 nM | – | – | – | 5%
12 | Cc1ncc(-c2ccc3cnc(NC(=O)[C@H]4C[C@H](N5CCOCC5)C4)cc3c2)o1 [Compound 1061, trans-N-(6-(2-Methyloxazol-5-yl)isoquinolin-3-yl)-3-morpholinocyclobutane-1-carboxamide] | 58 nM | 1610 nM | 4.3 nM | – | 8 nM | 947 nM | 1600 nM | – | – | – | –
13 | Cc1ncc(-c2ccc3cnc(NC(=O)CN4CCOCC4)cc3c2)o1 [Compound 1067, N-(6-(2-Methyloxazol-5-yl)isoquinolin-3-yl)-2-morpholinoacetamide] | 729 nM | > 10000 nM | 18.8 nM | – | 67 nM | 8940 nM | > 10000 nM | – | – | 43.1% | 48.7%
14 | Cc1ncc(-c2ccc3cnc(NC(=O)CCN4CCOCC4)cc3c2)o1 [Compound 1068, N-(6-(2-Methyloxazol-5-yl)isoquinolin-3-yl)-3-morpholinopropanamide] | 689 nM | 3720 nM | 5.3 nM | – | 36 nM | 3400 nM | > 10000 nM | – | – | 46% | –
15 | CN(C)c1nnc(-c2ccc3cnc(NC(=O)C4CCNCC4)cc3c2)o1 [Compound 1075, N-(6-(5-(Dimethylamino)-1,3,4-oxadiazol-2-yl)isoquinolin-3-yl)piperidine-4-carboxamide] | 709 nM | 2540 nM | 13.7 nM | – | 15 nM | 3270 nM | 5280 nM | – | – | – | –
16 | COC1CCN(CC(=O)Nc2cc3cc(-c4cnn(C)c4)ccc3cn2)CC1 [Compound 1077, 2-(4-Methoxypiperidin-1-yl)-N-(6-(1-methyl-1H-pyrazol-4-yl)isoquinolin-3-yl)acetamide] | 425 nM | 5190 nM | 4.5 nM | – | 32 nM | 3170 nM | 5250 nM | – | – | – | –
17 | Cn1cc(-c2ccc3cnc(NC(=O)CN4CCC(O)CC4)cc3c2)cn1 [Compound 1078, 2-(4-Hydroxypiperidin-1-yl)-N-(6-(1-methyl-1H-pyrazol-4-yl)isoquinolin-3-yl)acetamide] | 458 nM | 4030 nM | 6 nM | – | 70 nM | 3240 nM | 4410 nM | – | – | – | –
18 | CC(C)CN1CCCC(C(=O)Nc2cc3cc(-c4cnn(C)c4)ccc3cn2)CC1 (centres unmarked) [Compound 1079, 1-Isobutyl-N-(6-(1-methyl-1H-pyrazol-4-yl)isoquinolin-3-yl)azepane-4-carboxamide] | 190 nM | 1430 nM | 5.7 nM | – | 48 nM | 1210 nM | 2600 nM | – | – | – | –
19 | CN1CCCC(C(=O)Nc2cc3cc(-c4cnn(C)c4)ccc3cn2)CC1 (centres unmarked) [Compound 1080, 1-Methyl-N-(6-(1-methyl-1H-pyrazol-4-yl)isoquinolin-3-yl)azepane-4-carboxamide] | 251 nM | 1220 nM | 3.2 nM | – | 56 nM | 1070 nM | 1380 nM | – | – | – | –
20 | Cc1ncc(-c2ccc3cnc(NC(=O)[C@H]4CC[C@H](N(C)C)CC4)cc3c2)o1 [Compound 1082, trans-4-(Dimethylamino)-N-(6-(2-methyloxazol-5-yl)isoquinolin-3-yl) cyclohexane-1-carboxamide] | 1100 nM | 9900 nM | 10.2 nM | – | 210 nM | 2930 nM | 7100 nM | – | – | – | –
21 | CN1CCN(CC23CC(C(=O)Nc4cc5cc(-c6cnn(C)c6)ccc5cn4)(C2)C3)CC1 [Compound 1088, N-(6-(1-Methyl-1H-pyrazol-4-yl)isoquinolin-3-yl)-3-((4-methylpiperazin-1-yl)methyl)bicyclo[1.1.1]pentane-1-carboxamide] | 8600 nM | 7400 nM | 9.3 nM | – | 937 nM | 5980 nM | 9190 nM | – | – | – | –
22 | CN1CCC(NC(=O)Nc2cc3cc(-c4cnn(C)c4)ccc3cn2)CC1 [Compound 1090, 1-(6-(1-Methyl-1H-pyrazol-4-yl)isoquinolin-3-yl)-3-(1-methylpiperidin-4-yl)urea] | 969 nM | 722 nM | 6.9 nM | – | 288 nM | 484 nM | 994 nM | – | – | – | –
